≈ marks a conversion by molar mass, not a printed value. Blank lines part the entries; values can stand above or below the molecule they belong to. Square brackets hold non-standard residues; d marks the D form. Ends that are not written are not given here. Peptide text beside a SMILES is read from it.
How the values were obtained:
[1] = system: 70S ribosome, ribosomal binding site of Api805; assay: Fluorescence polarization competition with cf-Api805; parameters: species or system Escherichia coli; details: Figure S2, twice in triplicate
Description: Ki was determined for ribosome extracts using cf-labeled and unlabeled peptides in ribosome preparation buffer. Black 384-well plates were prepared as described above. Unlabeled peptides or antibiotics (20 μL, 656 μmol/L) were added and 2-fold serially diluted in 23 wells in ribosome preparation buffer. […] The fluorescence polarization was measured on a […] microplate reader in the top read position (λexc = 485 nm, λem = 535 nm) in triplicate on at least two different days. […] Inhibition constants, Ki, were calculated as described by Mathias and Jung. page 9: 140 140 120 120 100 100 80 80 60 60 40 40 […]. […]. […] 0 0 -20 -20 10 -2 1 10 2 10 4 10 6 10 -2 1 10 2 10 4 10 6 Pept ide Concent r at ion [ nM] Pept ide Concent r at ion [ nM] 140 140 120 120 100 100 80 80 60 60 40 40 20 Chlor […] ol vs. […] -20 -20 10 -2 1 10 2 10 4 10 6 10 -2 1 10 2 10 4 10 6 Ant ibiot ic Concent r at ion [ nM] Antibiotic Concentration [nM] 140 120 100 80 60 40 […] -20 10 -2 1 10 2 10 4 10 6 Ant ibiot ic Concent r at ion [ nM] Figure S2. […] tested as control in competition with Api137 or erythromycin. Experiments were done twice in triplicates. Error bars show the standard deviation of all six replicates. The horizontal dotted line separates positive and negative ranges on the Y-axis. - S9 - (also on this page, place not known: […]

[2] = biological target: 70S ribosome extract of E. coli BW25113 (E. coli BW25113 (endogenous)); assay: fluorescence polarisation; 2-fold dilution series of the ribosome extract (23 steps) mixed with cf-labeled peptide (20 µL, 40 nmol/L) in ribosome preparation buffer (20 mmol/L Hepes-KOH, 6 mmol/L MgCl2, 30 mmol/L NH4Cl, pH 7.6); 28 ± 1 °C, 90 min; Kd = x0 of a dose-response fit
[3] = biological target: 70S ribosome extract of E. coli Rosetta DE3 pLysS (E. coli Rosetta DE3 pLysS (endogenous)); assay: as above
[4] = system: 70S ribosome extract of E. coli BW25113; assay: Fluorescence polarization, Kd of cf-labeled peptides; type: binding, Escherichia coli
Description: (§1) E. coli BW25113 and E. coli Rosetta pLysS were cultivated in LB medium and harvested at an OD600 of ~4 by centrifugation (5000× g, 30 min, 4 °C). The cell pellets were washed by resuspension in ribosome preparation buffer (20 mmol/L Hepes-KOH, 6 mmol/L MgCl2, 30 mmol/L NH4Cl, pH 7.6, 4°C) and subsequent centrifugation (5000× g, 30 min, 4 °C). Cell pellets were suspended in ribosome preparation buffer ([…]) containing freshly added 2-mercapotethanol (4 mmol/L). Lysozyme was added to the resuspended cells and incubated on ice for 30 min. The cell suspension was disrupted six times using a FastPrep-24^TM 5G instrument (MP Biomedicals, Solon, OH, USA) with BigPrep 50 mL setting (40 s, 4.0 m/s), incubated with DNase I (5 mL/L) on ice for one hour and centrifuged (16,000× g, 30 min, 4 °C). The cell debris was removed from the supernatant by centrifugation (32,000× g, 60 min, 4 °C), and the supernatant was centrifuged again (165,000× g, 17 h, 4 °C). The pellet was resuspended in ribosome preparation buffer (0.1 mL per g cell pellet) to obtain the 70S ribosome extract and stored at −80 °C. The ribosome concentration was estimated by recording the absorbance at 260 nm (1 AU for a ribosome concentration of 28 nmol/L). The molecular weight of the 70S E. coli ribosome was assumed to be 2.3 MDa.
(§2) Kd was determined using a ribosome extract and cf-labeled peptides in ribosome preparation buffer. Briefly, black 384-well plates (flat bottom, Greiner Bio-One GmbH) were blocked with casein (0.5%, w/v) in phosphate buffer containing 0.05% (v/v) Tween 20 at 4 °C overnight and washed three times with phosphate buffer. A 2-fold dilution series of the ribosome extract (20 μL per well) in ribosome preparation buffer was prepared in a black 384-well plate (23 dilution steps). The cf-labeled peptide was dissolved in ribosome preparation buffer (20 μL, 40 nmol/L), added to each well, and incubated at 28 ± 1 °C. After 90 min, the fluorescence polarization was measured on a PARADIGMTM microplate reader (Beckman Coulter, Salzburg, Austria) in the top read position (λexc = 485 nm, λem = 535 nm) in triplicate on at least two different days. Data were fitted to a nonlinear, dose–response logistical transition equation [y= y0 + a/(1 + (x/x0)b)] using the Levenberg–Marquardt algorithm, with dissociation constants (Kd) represented by the x0 coefficients (GraphPad Prism for Windows v. 5.02, San Diego, CA, USA).

[5] = system: E. coli Rosetta DE3 pLysS; assay: MIC, liquid broth microdilution; type: cell-based, Escherichia coli; details: 25% MHBII medium, 7.5 × 10^6 CFU/mL, 37 °C, 20 ± 2 h, turbidity 600 nm, at least twice in triplicate
Description: (§3) The minimal inhibitory concentrations (MIC) were determined at least twice in triplicate using a liquid broth microdilution assay in sterile 96-well plates and a total volume of 100 μL per well. Aqueous peptide solutions were serially 2-fold diluted in 25% MHBII or 33% TSB medium in a volume of 50 µL. An overnight culture was diluted in 25% MHBII or 33% TSB medium to 1.5 × 10^7 CFU/mL, and an aliquot of 50 μL was added to each well. The final cell count in each well was 7.5 × 10^6 CFU/mL. The plates were incubated at 37 °C for 20 ± 2 h. The turbidity of each well was measured at a wavelength of 600 nm. The MIC was defined as the lowest peptide concentration where the turbidity was identical to medium only.

E. coli BW25113 = type: cell-based, Escherichia coli; details: BW25113, 2 h
Description: as §3, with “The plates were incubated at 37 °C for 20 ± 2 h.” left out

[6] = biological target: BW25113 ribosome extract, ribosomal binding site of Api137; assay: Fluorescence polarization competition against cf-Api137 (Ki); parameters: species or system Escherichia coli; details: unlabeled PrAMP against cf-labeled Api137, calculated from IC50, 95% confidence interval in brackets
Description: as §1
(§4) Ki was determined for ribosome extracts using cf-labeled and unlabeled peptides in ribosome preparation buffer. Black 384-well plates were prepared as described above. Unlabeled peptides or antibiotics (20 µL, 656 µmol/L) were added and 2-fold serially diluted in 23 wells in ribosome preparation buffer. A ribosome solution was prepared by adjusting the ribosome concentration to ~90% of the upper Kd plateau obtained for the cf-labeled peptide to be studied and added to each well (10 µL). […] The fluorescence polarization was measured on a PARADIGMTM microplate reader in the top read position (λexc = 485 nm, λem = 535 nm) in triplicate on at least two different days. […] Inhibition constants, Ki, were calculated as described by Mathias and Jung.

[7] = system: 70S ribosome extract of E. coli Rosetta DE3 pLysS; assay: Fluorescence polarization, Kd of cf-labeled peptides; type: binding, Escherichia coli; details: determined for the cf-labeled peptide, 28 °C, 90 min, 95% confidence interval in brackets, triplicate on at least two days, read-out: Kd, Ros
Description: as §1, §2

[8] = biological target: BW25113 ribosome extract, ribosomal binding site of Onc112; assay: Fluorescence polarization competition against cf-Onc112 (Ki); parameters: species or system Escherichia coli; details: unlabeled PrAMP against cf-labeled Onc112, calculated from IC50, 95% confidence interval in brackets
Description: as §1, §4

[9] = biological target: 70S ribosome extract of E. coli BW25113 (E. coli BW25113 (endogenous)); assay: fluorescence polarisation; competition: unlabeled peptide (2-fold series from 656 µmol/L) pre-incubated with BW25113 ribosome extract (28 °C, 90 min), then cf-Onc112 (10 µL, 80 nmol/L) added (28 °C, 90 min); ribosome preparation buffer; Ki calculated from IC50
[10] = biological target: 70S ribosome extract of E. coli BW25113 (E. coli BW25113 (endogenous)); assay: fluorescence polarisation; competition: unlabeled peptide (2-fold series from 656 µmol/L) pre-incubated with BW25113 ribosome extract (28 °C, 90 min), then cf-Api137 (10 µL, 80 nmol/L) added (28 °C, 90 min); ribosome preparation buffer; Ki calculated from IC50

Kd [2]: 906 nM
Molecule: cf-Api88 (peptide)

Kd [3]: 198 nM
Kd [2]: 382 nM
Molecule: cf-Api137 (peptide)

inhibition of the binding of cf-labeled Api805 [1]: none inhibited
Molecule: NC[C@H]1O[C@H](O[C@H]2[C@H](O)[C@@H](O[C@H]3O[C@H](CO)[C@@H](O)[C@H](N)[C@H]3O)[C@H](N)C[C@@H]2N)[C@H](O)[C@@H](O)[C@@H]1O [kanamycin]

Kd [3]: 515 nM
Kd [2]: 557 nM
Molecule: {5(6)‑carboxyfluorescein}-GNNRPIYIPRPRPPHPRPIRV-OH [cf-Api805]

Ki [9]: 247 nM
Ki [10]: 2 nM
Molecule: GNNRPIYIPRPRPPHPRL-OH [Api801]

More lines, now with the values behind:

Molecule: O=C(N[C@H](CO)[C@H](O)c1ccc([N+](=O)[O-])cc1)C(Cl)Cl [chloramphenicol]
inhibition of the binding of cf-labeled Api805 [1]: none inhibited

Molecule: cf-Api805: Api805 labeled with 5(6)-carboxyfluorescein at the N-terminus ({5(6)‑carboxyfluorescein}-GNNRPIYIPRPRPPHPRPIRV-OH)
Kd values of cf-labeled peptides, in words ([4]; 70S ribosome, refers to Table 2): nanomolar range

Molecule: CC[C@H](C)[C@H](NC(=O)[C@@H]1CCCN1C(=O)[C@H](CCCNC(=N)N)NC(=O)[C@H](CC(N)=O)NC(=O)[C@H](CC(N)=O)NC(=O)CN)C(=O)N[C@@H](Cc1ccc(O)cc1)C(=O)N[C@H](C(=O)N1CCC[C@H]1C(=O)N[C@@H](CCCNC(=N)N)C(=O)N1CCC[C@H]1C(=O)N[C@@H](CCCNC(=N)N)C(=O)N1CCC[C@H]1C(=O)N1CCC[C@H]1C(=O)N[C@@H](Cc1c[nH]cn1)C(=O)N1CCC[C@H]1C(=O)N[C@@H](CCCNC(=N)N)C(=O)N[C@@H](CC(C)C)C(=O)O)[C@@H](C)CC [Api801] (H-GNNRPIYIPRPRPPHPRL-OH)
MIC, Ros [5]: 4 µg/mL (≈ 1.86 µM)
MIC, BW (E. coli BW25113): 16 µg/mL (≈ 7.44 µM)

Molecule: CC[C@H]1OC(=O)[C@H](C)[C@@H](O[C@H]2C[C@@](C)(OC)[C@@H](O)[C@H](C)O2)[C@H](C)[C@@H](O[C@@H]2O[C@H](C)C[C@H](N(C)C)[C@H]2O)[C@](C)(O)C[C@@H](C)C(=O)[C@H](C)[C@@H](O)[C@]1(C)O [erythromycin]
inhibition of the binding of cf-labeled Api805 [1]: none inhibited

Molecule: CC[C@H](C)[C@H](NC(=O)[C@@H](CCCNC(=N)N)NC(=O)[C@H](CCCNC(=N)N)NC(=O)[C@@H]1CCCN1C(=O)[C@@H]1CCCN1C(=O)[C@H](CCCNC(=N)N)NC(=O)[C@@H]1CCCN1C(=O)[C@H](CCCNC(=N)N)NC(=O)[C@@H]1CCCN1C(=O)[C@H](CC(C)C)NC(=O)[C@H](Cc1ccc(O)cc1)NC(=O)[C@@H]1CCCN1C(=O)[C@@H]1CCCN1C(=O)[C@H](CCCCN)NC(=O)[C@H](CC(=O)O)NC(=O)[C@@H](N)C(C)C)C(=O)N[C@@H](Cc1ccc(O)cc1)C(=O)N[C@@H](CC(N)=O)C(=O)N[C@H](CCCNC(=N)N)C(N)=O [Onc112] (H-VDKPPYLPRPRPPR[dR]IYN[dR]-NH2)
Ki [6]: 606 nM
MIC, Ros [5]: 4 µg/mL (≈ 1.67 µM)
Kd ([4]; determined for the cf-labeled peptide, BW25113 ribosome extract, 28 °C, 90 min, 95% confidence interval in brackets, triplicate on at least two days, read-out: Kd, BW): 27 nM
Kd [7]: 51 nM
MIC, BW (E. coli BW25113): 4 µg/mL (≈ 1.67 µM)
Ki [8]: 8 nM

Molecule: {5(6)‑carboxyfluorescein}-VDKPPYLPRPRPPR[dR]IYN[dR]-NH2 [cf-Onc112]
Kd [3]: 51 nM
Kd [2]: 27 nM

Molecule: VDKPPYLPRPRPPR[dR]IYN[dR]-NH2 [Onc112]
Ki [9]: 8 nM
Ki [10]: 606 nM

From publication PMC9025336 (Antibiotics, 2022)
